# From patent US20230150970A1, “AMINOPYRIMIDINE DERIVATIVES AND THEIR USE AS ARYL HYDROCARBON RECEPTOR MODULATORS” (DONG-A ST CO., LTD., priority 2020, published 2023)
# Target: T1, AhR (Homo sapiens, UniProt P35869)
# T1 sequence (P35869 11-848): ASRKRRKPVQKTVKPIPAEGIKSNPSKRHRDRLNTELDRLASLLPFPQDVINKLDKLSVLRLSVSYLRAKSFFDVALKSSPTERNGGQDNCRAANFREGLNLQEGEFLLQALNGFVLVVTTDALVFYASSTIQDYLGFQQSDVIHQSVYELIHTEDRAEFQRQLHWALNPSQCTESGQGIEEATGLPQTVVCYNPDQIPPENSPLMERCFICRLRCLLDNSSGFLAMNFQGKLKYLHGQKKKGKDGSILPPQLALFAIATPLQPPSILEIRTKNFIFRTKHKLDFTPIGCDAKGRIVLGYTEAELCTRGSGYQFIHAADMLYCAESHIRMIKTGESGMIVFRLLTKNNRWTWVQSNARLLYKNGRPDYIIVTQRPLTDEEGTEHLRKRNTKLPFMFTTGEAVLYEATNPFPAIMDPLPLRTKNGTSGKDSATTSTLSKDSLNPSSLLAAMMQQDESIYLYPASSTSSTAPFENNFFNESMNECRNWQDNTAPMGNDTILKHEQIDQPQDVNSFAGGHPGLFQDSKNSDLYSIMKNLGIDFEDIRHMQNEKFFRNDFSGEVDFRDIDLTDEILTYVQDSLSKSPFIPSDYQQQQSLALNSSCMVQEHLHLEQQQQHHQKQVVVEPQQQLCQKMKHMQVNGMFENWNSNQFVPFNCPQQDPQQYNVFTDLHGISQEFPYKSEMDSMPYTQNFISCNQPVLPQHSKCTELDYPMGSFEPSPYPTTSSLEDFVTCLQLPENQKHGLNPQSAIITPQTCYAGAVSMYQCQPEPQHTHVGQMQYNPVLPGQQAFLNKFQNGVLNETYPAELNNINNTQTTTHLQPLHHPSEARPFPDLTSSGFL
# Experiment: In Vitro Assay 1: XRE-luciferase reporter assay, antagonism in human cell line (HepG2)
# Conditions: Assay 1: AhR-Luc Human Antagonism (IC50, nM), values marked *: kynurenine 50 μM, 6 hours
row,Compound,IC50
1,"Clc1ccc(-c2cc(NCC3CNCCO3)nc(-c3cccnc3)n2)cc1 (stereo not drawn) [Example 72, 6-(4-chlorophenyl)-N-(morpholin-2-ylmethyl)-2-(pyridin-3-yl)pyrimidin-4-amine]",> 1000 nM
2,"Clc1ccc(-c2cc(N3CCC(N4CCOCC4)C3)nc(-c3cccnc3)n2)cc1 (stereo not drawn) [Example 73, 4-(1-(6-(4-chlorophenyl)-2-(pyridin-3-yl)pyrimidin-4-yl)pyrrolidin-3-yl)morpholine]",> 1000 nM
3,"Clc1ccc(-c2cc(N3CCSCC3)nc(-c3cccnc3)n2)cc1 [Example 74, 4-(6-(4-chlorophenyl)-2-(pyridin-3-yl)pyrimidin-4-yl)thiomorpholine]",100 to 1000 nM
4,"Clc1ccc(-c2cc(NCCCN3CCOCC3)nc(-c3cccnc3)n2)cc1 [Example 75, 6-(4-chlorophenyl)-N-(3-morpholinopropyl)-2-(pyridin-3-yl)pyrimidin-4-amine]",> 1000 nM
5,"C[C@@H]1CNCCN1c1cc(-c2ccc(Cl)cc2)nc(-c2cccnc2)n1 [Example 76, (R)-4-(4-chlorophenyl)-6-(2-methylpiperazin-1-yl)-2-(pyridin-3-yl)pyrimidine]",> 1000 nM
6,"C[C@@H]1CN(C(=O)c2ccccc2)CCN1c1cc(-c2ccc(Cl)cc2)nc(-c2cccnc2)n1 [Example 77, (R)-(4-(6-(4-chlorophenyl)-2-(pyridin-3-yl)pyrimidin-4-yl)-3-methylpiperazin-1-yl)(phenyl)methanone]",> 1000 nM
7,"COC(=O)[C@H]1CN(c2cc(-c3ccc(Cl)cc3)nc(-c3cccnc3)n2)CCN1 [Example 78, methyl (R)-4-(6-(4-chlorophenyl)-2-(pyridin-3-yl)pyrimidin-4-yl)piperazine-2-carboxylate]",> 1000 nM
8,"Clc1ccc(-c2cc(N3CCN(c4cccc(Cl)c4Cl)CC3)nc(-c3cccnc3)n2)cc1 [Example 80, 4-(4-chlorophenyl)-6-(4-(2,3-dichlorophenyl)piperazin-1-yl)-2-(pyridin-3-yl)pyrimidine]",> 1000 nM
9,"COc1ccc(OC)c(CN2CCN(c3cc(-c4ccc(Cl)cc4)nc(-c4cccnc4)n3)CC2)c1 [Example 81, 4-(4-chlorophenyl)-6-(4-(2,5-dimethoxybenzyl)piperazin-1-yl)-2-(pyridin-3-yl)pyrimidine]",< 10 nM
10,"OCCN1CCN(c2cc(-c3ccc(Cl)cc3)nc(-c3cccnc3)n2)CC1 [Example 82, 2-(4-(6-(4-chlorophenyl)-2-(pyridin-3-yl)pyrimidin-4-yl)piperazin-1-yl)ethan-1-ol]",< 10 nM
11,"COc1ccccc1N1CCN(c2cc(-c3ccc(Cl)cc3)nc(-c3cccnc3)n2)CC1 [Example 83, 4-(4-chlorophenyl)-6-(4-(2-methoxyphenyl)piperazin-1-yl)-2-(pyridin-3-yl)pyrimidine]",10 to 100 nM
12,"CCOc1ccccc1N1CCN(c2cc(-c3ccc(Cl)cc3)nc(-c3cccnc3)n2)CC1 [Example 84, 4-(4-chlorophenyl)-6-(4-(2-ethoxyphenyl)piperazin-1-yl)-2-(pyridin-3-yl)pyrimidine]",> 1000 nM
13,"Fc1ccccc1N1CCN(c2cc(-c3ccc(Cl)cc3)nc(-c3cccnc3)n2)CC1 [Example 85, 4-(4-chlorophenyl)-6-(4-(2-fluorophenyl)piperazin-1-yl)-2-(pyridin-3-yl)pyrimidine]",100 to 1000 nM
14,"O=C(c1ccco1)N1CCN(c2cc(-c3ccc(Cl)cc3)nc(-c3cccnc3)n2)CC1 [Example 86, (4-(6-(4-chlorophenyl)-2-(pyridin-3-yl)pyrimidin-4-yl)piperazin-1-yl)(furan-2-yl)methanone]",10 to 100 nM
15,"Clc1ccc(-c2cc(N3CCN(CCc4ccccc4)CC3)nc(-c3cccnc3)n2)cc1 [Example 87, 4-(4-chlorophenyl)-6-(4-phenethylpiperazin-1-yl)-2-(pyridin-3-yl)pyrimidine]",10 to 100 nM
16,"Clc1ccc(-c2cc(NCCN3CCNCC3)nc(-c3cccnc3)n2)cc1 [Example 88, 6-(4-chlorophenyl)-N-(2-(piperazin-1-yl)ethyl)-2-(pyridin-3-yl)pyrimidin-4-amine]",> 1000 nM
17,"Clc1ccc(-c2cc(N3CCN(c4ccccn4)CC3)nc(-c3cccnc3)n2)cc1 [Example 89, 4-(4-chlorophenyl)-6-(4-(pyridin-2-yl)piperazin-1-yl)-2-(pyridin-3-yl)pyrimidine]",10 to 100 nM
18,"Clc1ccc(-c2cc(N3CCN(CCN4CCOCC4)CC3)nc(-c3cccnc3)n2)cc1 [Example 91, 4-(2-(4-(6-(4-chlorophenyl)-2-(pyridin-3-yl)pyrimidin-4-yl)piperazin-1-yl)ethyl)morpholine]",10 to 100 nM
19,"Clc1ccc(-c2cc(N3CCN(C/C=C/c4ccccc4)CC3)nc(-c3cccnc3)n2)cc1 [Example 93, trans-4-(4-chlorophenyl)-6-(4-cinnamylpiperazin-1-yl)-2-(pyridin-3-yl)pyrimidine]",10 to 100 nM
20,"Clc1ccc(-c2cc(N3CCN(c4ccccc4)CC3)nc(-c3cccnc3)n2)cc1 [Example 95, 4-(4-chlorophenyl)-6-(4-phenylpiperazin-1-yl)-2-(pyridin-3-yl)pyrimidine]",10 to 100 nM

# Further lines, results first:
row,IC50,Compound
1,< 10 nM,"CCCN1CCN(c2cc(-c3ccc(Cl)cc3)nc(-c3cccnc3)n2)CC1 [Example 96, 4-(4-chlorophenyl)-6-(4-propylpiperazin-1-yl)-2-(pyridin-3-yl)pyrimidine]"
2,< 10 nM,"Clc1ccc(-c2cc(N3CCN(Cc4ccc5c(c4)OCO5)CC3)nc(-c3cccnc3)n2)cc1 [Example 97, 4-(4-(benzo[d][1,3]dioxol-5-ylmethyl)piperazin-1-yl)-6-(4-chlorophenyl)-2-(pyridin-3-yl)pyrimidine]"
3,> 1000 nM,"OC[C@@H]1CN(c2cc(-c3ccc(Cl)cc3)nc(-c3cccnc3)n2)CCN1 [Example 98, (S)-(4-(6-(4-chlorophenyl)-2-(pyridin-3-yl)pyrimidin-4-yl)piperazin-2-yl)methanol]"
4,10 to 100 nM,"Fc1ccc(N2CCN(c3cc(-c4ccc(Cl)cc4)nc(-c4cccnc4)n3)CC2)cc1 [Example 99, 4-(4-chlorophenyl)-6-(4-(4-fluorophenyl)piperazin-1-yl)-2-(pyridin-3-yl)pyrimidine]"
5,> 1000 nM,"CN1C(C)(C)CC(Nc2cc(-c3ccc(Cl)cc3)nc(-c3cccnc3)n2)CC1(C)C [Example 100, 6-(4-chlorophenyl)-N-(1,2,2,6,6-pentamethylpiperidin-4-yl)-2-(pyridin-3-yl)pyrimidin-4-amine]"
6,100 to 1000 nM,"Clc1ccc(-c2cc(NC3CCCNC3)nc(-c3cccnc3)n2)cc1 (stereo not drawn) [Example 101, 6-(4-chlorophenyl)-N-(piperidin-3-yl)-2-(pyridin-3-yl)pyrimidin-4-amine]"
7,100 to 1000 nM,"Clc1ccc(-c2cc(N3CCNCC3)nc(-c3cccnc3)n2)cc1 [Example 102, 4-(4-chlorophenyl)-6-(piperazin-1-yl)-2-(pyridin-3-yl)pyrimidine]"
8,> 1000 nM,"C[C@@H]1CN(c2cc(-c3ccc(Cl)cc3)nc(-c3cccnc3)n2)C[C@H](C)N1 [Example 104, Cis-4-(4-chlorophenyl)-6-(3,5-dimethylpiperazin-1-yl)-2-(pyridin-3-yl)pyrimidine]"
9,10 to 100 nM,"CCN1CCN(c2cc(-c3ccc(Cl)cc3)nc(-c3cccnc3)n2)CC1 [Example 106, 4-(4-chlorophenyl)-6-(4-ethylpiperazin-1-yl)-2-(pyridin-3-yl)pyrimidine]"
10,< 10 nM,"CC(=O)N1CCN(c2cc(-c3ccc(Cl)cc3)nc(-c3cccnc3)n2)CC1 [Example 108, 1-(4-(6-(4-chlorophenyl)-2-(pyridin-3-yl)pyrimidin-4-yl)piperazin-1-yl)ethan-1-one]"
11,> 1000 nM,"CCC1CN(c2cc(-c3ccc(Cl)cc3)nc(-c3cccnc3)n2)CCN1 (stereo not drawn) [Example 109, 4-(4-chlorophenyl)-6-(3-ethylpiperazin-1-yl)-2-(pyridin-3-yl)pyrimidine]"
12,< 10 nM,"CCOC(=O)N1CCN(c2cc(-c3ccc(Cl)cc3)nc(-c3cccnc3)n2)CC1 [Example 110, ethyl 4-(6-(4-chlorophenyl)-2-(pyridin-3-yl)pyrimidin-4-yl)piperazine-1-carboxylate]"
13,> 1000 nM,"O=C(O)C1CN(c2cc(-c3ccc(Cl)cc3)nc(-c3cccnc3)n2)CCN1 (stereo not drawn) [Example 111, 4-(6-(4-chlorophenyl)-2-(pyridin-3-yl)pyrimidin-4-yl)piperazine-2-carboxylic acid]"
14,> 1000 nM,"COC(=O)C1CNCCN1c1cc(-c2ccc(Cl)cc2)nc(-c2cccnc2)n1 (stereo not drawn) [Example 112, methyl 1-(6-(4-chlorophenyl)-2-(pyridin-3-yl)pyrimidin-4-yl)piperazine-2-carboxylate]"
15,> 1000 nM,"Clc1ccc(-c2cc(N3CCNC[C@@H]3c3ccccc3)nc(-c3cccnc3)n2)cc1 [Example 113, (S)-4-(4-chlorophenyl)-6-(2-phenylpiperazin-1-yl)-2-(pyridin-3-yl)pyrimidine]"
16,> 1000 nM,"Cc1ccccc1N1CCN(c2cc(-c3ccc(Cl)cc3)nc(-c3cccnc3)n2)CC1 [Example 114, 4-(4-chlorophenyl)-2-(pyridin-3-yl)-6-(4-(o-tolyl)piperazin-1-yl)pyrimidine]"
